Assay results from patent publication US10471046B2, “Method for treating, preventing, or reducing the risk of skin infection” (Melinta Subsidiary Corp., priority 2014, dated 2019).
≈ marks a conversion by molar mass, not a printed value. Read-outs that look alike come from different tables or passages of the source.

Columns and labels:
P. granulosum [1] = test: Broth microdilution MIC; format: cell-based
[2] = Approximate solubility in solvents by aliquot addition; format: physicochemical; conditions: ambient temperature
Description: Solubilities of the radezolid free base and radezolid HCl salt in various solvents were estimated and are shown in Tables 10 and 11, respectively, below. A weighed sample was treated with aliquots of test solvent at ambient temperature. Complete dissolution of the test material was determined by visual inspection. Solubility was estimated based on the total solvent used to provide complete dissolution. The actual solubility may be greater than the approximate solubility calculated because of the use of solvent aliquots that were too large or due to a slow rate of dissolution. […] If complete dissolution was achieved as a result of only one aliquot addition, the solubility is expressed as “greater than.” The approximate solubilities were rounded to the nearest whole number.

P. granulosum [3] = test: Agar dilution MIC (CLSI reference method); format: cell-based
G. vaginalis [4] = test: Agar dilution MIC (CLSI reference method); format: cell-based; conditions: for MIC: Gardnerella vaginalis
B. fragilis = test: Agar dilution MIC (CLSI reference method); format: cell-based; conditions: Bacteroides fragilis, ATCC25285; B. fragilis ATCC 25285
P. acnes = test: Agar dilution MIC (CLSI reference method); format: cell-based; conditions: for MIC: Cutibacterium acnes
Listeria monocytogenes = conditions: cited from earlier work
Staphylococcus aureus = test: MIC against ribosome-based resistance phenotypes; format: cell-based; conditions: read-out: Minimum Inhibitory Concentration (MIC)
Source text: (§1) Furthermore, the antibiotic compounds can be assayed for anti-proliferative or anti-infective properties on a cellular level. For example, where the target organism is a microorganism, the activity of compounds of interest can be assayed by growing the microorganisms of interest in media either containing or lacking the compound. Growth inhibition can be indicative that the molecule could be acting as a protein synthesis inhibitor. […] For this purpose, a panel of bacterial strains can be assembled to include a variety of target pathogenic species, some containing resistance mechanisms that have been characterized. Use of such a panel of organisms permits the determination of structure-activity relationships not only in regards to potency and spectrum, but also with a view to obviating resistance mechanisms.

Enterococcus faecalis = test: MIC against ribosome-based resistance phenotypes; format: cell-based; conditions: read-out: Minimum Inhibitory Concentration (MIC)
Source text: as §1

F. magna = test: Agar dilution MIC (CLSI reference method); format: cell-based
G. vaginalis [5] = test: Broth microdilution MIC; format: cell-based; conditions: for MIC: Gardnerella vaginalis
[6] = Long-term rat safety study; format: in vivo
Source text: There was 100% survival in all dose groups.

all organisms = test: Agar dilution MIC, range over the isolates tested; format: cell-based; conditions: read-out: agar dilution MICs for all organisms
Enterococcus faecium = test: MIC against ribosome-based resistance phenotypes; format: cell-based; conditions: Enterococcus faecium A6349; VanA + Lin-R (G2576U); read-out: Minimum Inhibitory Concentration (MIC)
Source text: as §1, with “mechanisms. The assays can be performed in microtiter trays according to conventional methodologies as published by The National Committee for Clinical Laboratory Standards (NCCLS) guidelines (NCCLS. M7-A5-Methods for Dilution Antimicrobial Susceptibility Tests for Bacteria That Grow Aerobically; Approved Standard-Fifth Edition. NCCLS Document M100-S12/M7 (ISBN 1-56238-394-9)).” for “mechanisms.”

[7] = system: intracellular S. aureus (including linezolid-resistant); conditions: cited from earlier work
B. thetaiotaomicron [8] = test: microbe, parasite or virus in culture; format: cell-based; conditions: Bacteroides thetaiotaomicron, ATCC29741; B. thetaiotaomicron ATCC 29741; read-out: MIC, broth microdilution
[9] = system: mammalian cells (e.g., defense cells, macrophages, lung cells, and non-phagocytic cells); conditions: cited from earlier work
[10] = format: physicochemical; conditions: radezolid salt forms in HPLC grade water, ambient temperature; listed as Free base
B. thetaiotaomicron [11] = test: microbe, parasite or virus in culture; format: cell-based; conditions: Bacteroides thetaiotaomicron, ATCC29741; B. thetaiotaomicron ATCC 29741; read-out: MIC, agar dilution
Legionella pneumophila = conditions: cited from earlier work
[12] = Human exposure (AUC 0-24); conditions: in vivo; human @ 300 mg dose
[13] = ATCC14018, G. vaginalis ATCC 14018
[14] = ATCC49145, G. vaginalis ATCC 49145

In the case of CC(=O)NC[C@H]1CN(c2ccc(-c3ccc(CNCc4cnn[nH]4)cc3)c(F)c2)C(=O)O1 [Radezolid, (5S)—N-[3-(2-Fluoro-4′-{[(1H-[1,2,3]triazol-4-ylmethyl)-amino]-methyl}-biphenyl-4-yl)-2-oxo-oxazolidin-5-ylmethyl]-acetamide], the “broth microdilution, fold more active than linezolid” value (P. granulosum [1]; P. granulosum) is reported as 8 fold, the MIC (P. granulosum [1]; P. granulosum ATCC 25746) is reported as 0.125 µg/mL (≈ 0.285 µM) and the solubility ([2]; 2,2,2-trifluoroethanol (TFE), organic solvent or mixture, thermodynamic from solid, 2,2,2-trifluoroethanol (TFE)) is reported as at least 54000 µg/mL. It also gave a solubility ([2]; HFIPA/methanol (1:3 by volume), organic solvent or mixture, thermodynamic from solid, HFIPA/Methanol (1:3 by volume)) of under 1000 µg/mL, a solubility ([2]; acetone, organic solvent or mixture, thermodynamic from solid) of under 1000 µg/mL and a solubility ([2]; acetonitrile, organic solvent or mixture, thermodynamic from solid) of under 1000 µg/mL. For the same molecule, the solubility ([2]; dichloromethane, organic solvent or mixture, thermodynamic from solid) was under 1000 µg/mL, the solubility ([2]; ethyl acetate, organic solvent or mixture, thermodynamic from solid) was under 1000 µg/mL and the solubility ([2]; ethyl ether, organic solvent or mixture, thermodynamic from solid) was under 1000 µg/mL. It also gave a solubility ([2]; hexafluoroisopropanol (HFIPA), organic solvent or mixture, thermodynamic from solid) of at least 245000 µg/mL, a solubility ([2]; hexamethylphosphoramide, organic solvent or mixture, thermodynamic from solid, Hexamethyl-phosphoramide) of under 26000 µg/mL and a solubility ([2]; methanol, organic solvent or mixture, thermodynamic from solid) of under 1000 µg/mL. The solubility ([2]; tetrahydrofuran (THF), organic solvent or mixture, thermodynamic from solid) was under 1000 µg/mL, the solubility ([2]; water, thermodynamic from solid) was under 1000 µg/mL and the “agar dilution MIC, fold more potent than linezolid” value (P. granulosum [3]; P. granulosum) was 8 fold. The MIC (P. granulosum [3]; P. granulosum ATCC 25746) was 0.25 µg/mL (≈ 0.57 µM), the “agar dilution MIC, fold more potent than linezolid” value (G. vaginalis [4]; G. vaginalis) was 8 fold and the MIC (G. vaginalis [4]; [13]) was 0.06 µg/mL (≈ 0.137 µM). For the same molecule, the MIC (G. vaginalis [4]; [14]) was 0.06 µg/mL (≈ 0.137 µM), the MIC (B. fragilis) was 4 µg/mL (≈ 9.12 µM) and the MIC (P. acnes; ATCC11827, P. acnes ATCC 11827) was 0.125 µg/mL (≈ 0.285 µM). For the same molecule, the MIC (P. acnes; ATCC11828, P. acnes ATCC 11828) was 0.125 µg/mL (≈ 0.285 µM), the MIC (P. acnes; ATCC29399, P. acnes ATCC 29399) was 0.125 µg/mL (≈ 0.285 µM) and the “agar dilution MIC, fold more potent than linezolid” value (P. acnes; P. acnes) was 4 fold. For the same molecule, the intracellular killing (Listeria monocytogenes) was “kills”, the MIC (Staphylococcus aureus; ATCC29213, Staphylococcus aureus ATCC29213, phenotype QC) was 1 µg/mL (≈ 2.28 µM) and the MIC (Staphylococcus aureus; Staphylococcus aureus 01A1095, Mac-R) was 1 µg/mL (≈ 2.28 µM). It also gave an MIC (Staphylococcus aureus; Staphylococcus aureus A7820, Lin-R (G2576U) + Mac-R (ErmC)) of 16 µg/mL, an MIC (Enterococcus faecalis; ATCC29212, Enterococcus faecalis ATCC29212, phenotype QC) of 0.25 µg/mL (≈ 0.57 µM) and an MIC (Enterococcus faecalis; ATCC29212, Enterococcus faecalis ATCC29212-P5, Lin-R (G2576U)) of 1 µg/mL (≈ 2.28 µM). For the same molecule, the MIC (Enterococcus faecalis; Enterococcus faecalis 1069, VanB) was 0.25 µg/mL (≈ 0.57 µM), the “agar dilution MIC, fold more potent than linezolid” value (F. magna; F. magna) was 4 fold and the “difference between broth and agar dilution MICs” value (F. magna; F. magna) was 4 fold. The MIC (F. magna; Finegoldia magna, ATCC15794, F. magna ATCC 15794) was 0.5 µg/mL (≈ 1.14 µM), the “broth microdilution, fold more active than linezolid” value (G. vaginalis [5]; G. vaginalis 49145) was 8 fold and the MIC (G. vaginalis [5]; [13]) was 0.125 µg/mL (≈ 0.285 µM). For the same molecule, the MIC (G. vaginalis [5]; [14]) was 0.06 µg/mL (≈ 0.137 µM), the survival ([6]; both, rat, in vivo) was 100% and the “Safety margin (Rat NOAEL AUC/Human efficacious AUC)” value ([6]; calculated from rat and human AUC 0-24) was 30.8x. For the same molecule, the AUC(0-t) ([6]; male, rat, in vivo, 200 mg/kg) was 102000 ng·h/mL, the “changes in hematology, coagulation, clinical chemistry, or urinalysis” value ([6]; rat, in vivo) was “No test article-related changes” and the “safety in long-term rat study” value ([6]; rat, in vivo) was “good safety”. For the same molecule, the MIC (all organisms) was 0.06 to 1 µg/mL (≈ 0.137 to 2.28 µM), the MIC (Enterococcus faecium) was 0.5 µg/mL and the intracellular killing [7] was “kills”. The MIC (B. thetaiotaomicron [8]) was 8 µg/mL (≈ 18.2 µM), the “fraction accumulating in the cytosol of cells” value ([9]; cytosol) was “Approximately 60%” and the “fraction accumulating in the lysosome” value ([9]; lysosome) was “approximately 40%”. For the same molecule, the “accumulation in mammalian cells, extent greater than linezolid” value ([9]; relative to linezolid) was 17 fold, the solubility [10] was under 20 µg/mL and the MIC (B. thetaiotaomicron [11]) was over 8 µg/mL. The intracellular killing (Legionella pneumophila) was “kills” and the AUC(0-t) [12] was 3330 ng·h/mL.
